Results on five compounds are retold here after patent US7998975B2, “Nitrogenous fused-ring derivatives, medicinal compositions containing the derivatives, and use thereof as drugs” (Kissei Pharmaceutical Co., Ltd., priority 2004, dated 2011).

Molecules are shown by their SMILES.

One assay addresses T1, human SGLT2 (Homo sapiens, UniProt P31639).
T1 construct: expressed in transfected cells
T1 sequence (P31639 1-672): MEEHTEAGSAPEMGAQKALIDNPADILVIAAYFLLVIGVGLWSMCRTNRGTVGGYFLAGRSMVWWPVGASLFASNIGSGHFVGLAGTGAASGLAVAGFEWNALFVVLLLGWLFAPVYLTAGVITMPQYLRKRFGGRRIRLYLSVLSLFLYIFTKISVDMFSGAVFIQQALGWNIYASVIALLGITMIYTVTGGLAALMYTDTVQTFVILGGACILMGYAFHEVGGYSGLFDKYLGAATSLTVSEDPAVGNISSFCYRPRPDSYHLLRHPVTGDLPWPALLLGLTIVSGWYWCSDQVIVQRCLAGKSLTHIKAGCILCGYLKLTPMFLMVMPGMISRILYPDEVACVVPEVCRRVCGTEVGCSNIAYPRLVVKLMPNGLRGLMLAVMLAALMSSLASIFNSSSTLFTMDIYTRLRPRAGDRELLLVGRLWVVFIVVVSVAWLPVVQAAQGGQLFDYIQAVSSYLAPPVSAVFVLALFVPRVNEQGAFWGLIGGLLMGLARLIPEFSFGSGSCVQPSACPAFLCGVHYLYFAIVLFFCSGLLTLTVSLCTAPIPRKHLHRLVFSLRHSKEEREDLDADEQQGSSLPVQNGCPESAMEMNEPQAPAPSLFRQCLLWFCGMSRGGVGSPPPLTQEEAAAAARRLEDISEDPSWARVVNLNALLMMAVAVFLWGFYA
Nature of the assay: Assay for inhibitory effects on human SGLT2 activity (uptake of methyl-α-D-glucopyranoside in CS2-5E cells). The format is cell-based. To be noted: inhibition of 14C α-MG uptake, CHO-K1 derived CS2-5E cells stably expressing human SGLT2, 1 mM α-MG, 37° C., 1 hour. As to the method:
Assay for Inhibitory Effects on Human SGLT2 Activity
1) Cloning and Construction of the Vector Expressing Human SGLT2
The cDNA library was prepared for PCR amplification by reverse transcription from total RNA deprived from human kidney (Ori gene) using oligo-dT as a primer. Using this cDNA library as a template, the DNA fragment coding 2 to 2039 bp of human SGLT2 (ACCESSION: M95549, M95299), which was reported by R. G. Wells et al., was amplified by PCR method and inserted into the multi-cloning site of pcDNA3.1(−) (Invitrogen). The DNA sequence inserted was perfectly matched to the previously reported sequence.
2) Establishment of Cell Line Stably Expressing Human SGLT2
The expression vector of human SGLT2 was digested by Sca I into a linear DNA. The linear DNA was transfected into CHO-K1 cells by means of lipofection (Effectene Transfection Reagent: QIAGEN). Neomycin resistant cell lines were selected by culture in the medium containing G418 (1 mg/mL, LIFE TECHNOLOGIES), and then the activity against the uptake of methyl-α-D-glucopyranoside was measured by the method described below. […] CS2-5E cells were cultured in the presence of G418 at 200 μg/mL. […]
CS2-5E cells were seeded into a 96-well culture plate at a density of 3×10^4 cells/well and cultured for 2 days, and were used in the uptake assay. […] Radioactivity was measured by means of micro-scintillation counter TopCount (Packard). […]

The next assay addresses T2, human SGLT1 (Homo sapiens, UniProt P13866).
T2 construct: expressed in transfected cells
T2 sequence (P13866 1-664): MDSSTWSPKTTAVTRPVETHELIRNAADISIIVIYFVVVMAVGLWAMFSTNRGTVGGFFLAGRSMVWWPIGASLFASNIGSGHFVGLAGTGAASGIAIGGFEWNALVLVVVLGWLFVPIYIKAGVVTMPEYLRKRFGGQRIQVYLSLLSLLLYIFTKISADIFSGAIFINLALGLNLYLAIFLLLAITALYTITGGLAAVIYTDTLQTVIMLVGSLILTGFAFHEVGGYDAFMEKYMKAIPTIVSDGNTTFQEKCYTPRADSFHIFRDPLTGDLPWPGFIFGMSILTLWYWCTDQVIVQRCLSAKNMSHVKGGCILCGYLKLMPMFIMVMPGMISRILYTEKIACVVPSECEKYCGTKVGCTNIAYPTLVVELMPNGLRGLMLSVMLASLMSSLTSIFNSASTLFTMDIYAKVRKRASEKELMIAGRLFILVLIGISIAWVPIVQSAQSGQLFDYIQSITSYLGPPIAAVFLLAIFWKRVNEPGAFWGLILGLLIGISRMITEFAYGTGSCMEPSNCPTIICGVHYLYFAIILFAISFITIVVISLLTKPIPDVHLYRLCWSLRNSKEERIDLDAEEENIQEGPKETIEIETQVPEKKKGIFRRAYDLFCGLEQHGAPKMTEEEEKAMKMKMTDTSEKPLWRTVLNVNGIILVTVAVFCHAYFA
Nature of the assay: Assay for inhibitory effects on human SGLT1 activity (uptake of methyl-α-D-glucopyranoside in CS1-5-11D cells). The format is cell-based. Particulars: inhibition of 14C α-MG uptake, CHO-K1 derived CS1-5-11D cells stably expressing human SGLT1, 1 mM α-MG, 37° C., 1 hour. As to the method:
Assay for Inhibitory Effects on Human SGLT1 Activity
1) Cloning and Construction of the Vector Expressing Human SGLT1
The cDNA library was prepared for PCR amplification by reverse transcription from total RNA deprived from human small intestine (Ori gene) using oligo-dT as a primer. Using this cDNA library as a template, the DNA fragment coding 1 to 2005 bp of human SGLT1 (ACCESSION: M24847), which was reported by Hediger et al., was amplified by PCR method and inserted into the multi-cloning site of pcDNA3.1(−) (Invitrogen). The DNA sequence inserted was perfectly matched to the previously reported sequence.
2) Establishment of Cell Line Stably Expressing Human SGLT1
The expression vector of human SGLT1 was digested by Sca I into a linear DNA. The linear DNA was transfected into CHO-K1 cells by means of lipofection (Effectene Transfection Reagent: QIAGEN). Neomycin resistant cell lines were selected by culture in the medium containing G418 (1 mg/mL, LIFE TECHNOLOGIES), and then the activity against the uptake of methyl-α-D-glucopyranoside was measured by the method described below. […] CS1-5-11D cells were cultured in the presence of G418 at 200 μg/mL. […]
CS1-5-11D cells were seeded into a 96-well culture plate at a density of 3×10^4 cells/well and cultured for 2 days, and were used in the uptake assay. […] Radioactivity was measured by means of micro-scintillation counter TopCount (Packard). […]

For the next assay, the system named is diabetic rats. Nature of the assay: Assay for inhibitory effects on blood glucose level increase in rats (liquid meal tolerance test). The format is in vivo, Wistar rats. Particulars: liquid meal load, mean±S.E.; for Plasma glucose concentration 0.5 h: 0.5 hour after administration; for Plasma glucose concentration 1 h: 1 hour after administration; for Plasma glucose concentration 0 h: pretreatment (0 h). As to the method:
Assay for Inhibitory Effects on Blood Glucose Level Increase in Rats
1) Preparation of Diabetic Rat Model
Male Wistar rats (Japan Charles River), aged 8 weeks old, were injected nicotinamide (230 mg/kg) intraperitoneally. Fifteen minutes after injection, they were injected streptozotocin (85 mg/kg) intravenously from tail vain under anesthesia with ether. After a week, rats were fasted overnight and then glucose tolerance test (2 g/kg) was done.
2) Liquid Meal Tolerance Test
After overnight fasted, the diabetic rats were orally administered a test compound (0.5, 2 mg/kg), which was dissolved in distilled water, in the drug-treating group, or distilled water alone in a control group. Immediately after the compound administration, 4.5 kcal/body of liquid meal (No. 038, Control diet, assorted with dextrin and maltose; Oriental Yeast Co., Ltd.) was loaded orally. The blood was collected from tail artery immediately before and after administration with the time course, and treated with heparin immediately. The blood was centrifuged, and the plasma was collected to quantify the plasma glucose concentration by glucose oxidase method. The values in the Table are presented as the mean±S.E.

What is called IC50 is the concentration that gives 50% inhibition. A lower IC50 goes with greater potency in that assay. Compound `OC[C@H]1O[C@@H](Oc2n[nH]c3cccc(CCc4ccccc4)c23)[C@H](O)[C@@H](O)[C@@H]1O` [Example 4, 3-(β-D-Glucopyranosyloxy)-4-(2-phenylethyl)-1H-indazole] came in with an IC50 against human SGLT2 of 90 nM.

Take `Cc1cc(CCc2cccc3[nH]nc(O[C@@H]4O[C@H](CO)[C@@H](O)[C@H](O)[C@H]4O)c23)ccc1O` [Example 5, 3-(β-D-Glucopyranosyloxy)-4-[2-(4-hydroxy-3-methylphenyl)-ethyl]-1H-indazole]: at human SGLT1, the IC50 stood at 12 nM.

`NC(=O)Cn1nc(O[C@@H]2O[C@H](CO)[C@@H](O)[C@H](O)[C@H]2O)c2c(CCc3ccc(O)cc3)ccnc21` [Example 12, 1-Carbamoylmethyl-3-(β-D-glucopyranosyloxy)-4-[2-(4-hydroxyphenyl)ethyl]-1H-pyrazolo[3,4-b]pyridine] gave an IC50 against human SGLT1 of 100 nM.

As to `OCCn1nc(O[C@@H]2O[C@H](CO)[C@@H](O)[C@H](O)[C@H]2O)c2c(CCc3ccccc3)ccnc21` [Example 17, 3-(β-D-Glucopyranosyloxy)-1-(2-hydroxyethyl)-4-(2-phenylethyl)-1H-pyrazolo[3,4-b]pyridine], on human SGLT2, the IC50 was determined as 68 nM.

Turning to `OCCn1nc(O[C@@H]2O[C@H](CO)[C@@H](O)[C@H](O)[C@H]2O)c2c(CCc3ccc(O)cc3)cccc21` [Example 59, 3-(β-D-Glucopyranosyloxy)-1-(2-hydroxyethyl)-4-[2-(4-hydroxyphenyl)ethyl]-1H-indazole], in the assay on diabetic rats (0.5 mg/kg orally), the “Plasma glucose concentration 0.5 h” value is 173 ± 7 mg/dL, the “Plasma glucose concentration 1 h” value stood at 186 ± 6 mg/dL and the “Plasma glucose concentration 0 h” value stood at 109 ± 2 mg/dL. Besides, in the assay with diabetic rats (2 mg/kg orally), the “Plasma glucose concentration 0.5 h” value was 141 ± 3 mg/dL, the “Plasma glucose concentration 1 h” value is reported as 153 ± 4 mg/dL and the “Plasma glucose concentration 0 h” value is given as 115 ± 3 mg/dL.
